Activity calls are given as the source filed them. No cut-off for these calls is given here.
Experiments:
Mus musculus [1] = test: Nootropic activity against scopolamine-induced amnesia in mouse assessed as increase in latency period to enter dark room up to 10 mg/kg, ip administered 20 mins prior to test by passive avoidance test (reference value: 91.7 sec); type: functional, organism-based; set-up: dose 10 mg/kg
Mus musculus [2] = test: Nootropic activity against scopolamine-induced amnesia in mouse assessed as increase in latency time to enter dark room at 1 mg/kg, ip administered 20 mins prior to test by passive avoidance test (reference value: 91.7 sec); type: functional; conditions: route intraperitoneal
Mus musculus [3] = test: Nootropic activity against scopolamine-induced amnesia in mouse assessed as increase in latency time to enter dark room at 10 mg/kg, ip administered 20 mins prior to test by passive avoidance test (reference value: 91.7 sec); type: functional; conditions: route intraperitoneal
Mus musculus [4] = test: Neurotoxicity in mouse assessed as effect on motor coordination at 10 mg/kg, ip by rotarod test; type: toxicity, organism-based; set-up: dose 10 mg/kg, route intraperitoneal; conditions: in vivo
Mus musculus [5] = test: Neurotoxicity in mouse assessed as effect on spontaneous motility at 10 mg/kg, ip by hole-board test; type: toxicity, organism-based; set-up: dose 10 mg/kg, route intraperitoneal; conditions: in vivo
Mus musculus [6] = test: Neurotoxicity in mouse assessed as effect on gross behaviour at 10 mg/kg, ip by rotarod test; type: toxicity, organism-based; set-up: dose 10 mg/kg, route intraperitoneal; conditions: in vivo
Mus musculus [7] = test: Neurotoxicity in mouse assessed as effect on inspection activity at 10 mg/kg, ip by hole-board test; type: toxicity, organism-based; set-up: dose 10 mg/kg, route intraperitoneal; conditions: in vivo
Mus musculus [8] = test: Neurotoxicity in mouse assessed as effect on motor coordination at 1 mg/kg, ip by rotarod test; type: toxicity, organism-based; set-up: dose 1 mg/kg, route intraperitoneal; conditions: in vivo
Mus musculus [9] = test: Neurotoxicity in mouse assessed as effect on spontaneous motility at 1 mg/kg, ip by hole-board test; type: toxicity, organism-based; set-up: dose 1 mg/kg, route intraperitoneal; conditions: in vivo
Mus musculus [10] = test: Neurotoxicity in mouse assessed as effect on gross behavior at 1 mg/kg, ip by rota-rod test; type: toxicity, organism-based; set-up: dose 1 mg/kg, route intraperitoneal; conditions: in vivo
Mus musculus [11] = test: Neurotoxicity in mouse assessed as effect on inspection activity at 1 mg/kg, ip by hole-board test; type: toxicity, organism-based; set-up: dose 1 mg/kg, route intraperitoneal; conditions: in vivo
Mus musculus [12] = test: Neurotoxicity in mouse assessed as effect on motor coordination at 30 mg/kg, ip by rotarod test; type: toxicity, organism-based; set-up: dose 30 mg/kg, route intraperitoneal; conditions: in vivo
Mus musculus [13] = test: Neurotoxicity in mouse assessed as effect on spontaneous motility at 30 mg/kg, ip by hole-board test; type: toxicity, organism-based; set-up: dose 30 mg/kg, route intraperitoneal; conditions: in vivo
Mus musculus [14] = test: Neurotoxicity in mouse assessed as effect on gross behavior at 30 mg/kg, ip by rota-rod test; type: toxicity, organism-based; set-up: dose 30 mg/kg, route intraperitoneal; conditions: in vivo
Mus musculus [15] = test: Neurotoxicity in mouse assessed as effect on inspection activity at 30 mg/kg, ip by hole-board test; type: toxicity, organism-based; set-up: dose 30 mg/kg, route intraperitoneal; conditions: in vivo
Mus musculus [16] = test: Nootropic activity against scopolamine-induced amnesia in mouse assessed as increase in latency time to enter dark room at 0.001 mg/kg, ip administered 20 mins prior to test by passive avoidance test (reference value: 91.7 sec); type: functional; conditions: route intraperitoneal
Mus musculus [17] = test: Neurotoxicity in mouse assessed as effect on motor coordination at 0.001 mg/kg, ip by rotarod test; type: toxicity, organism-based; set-up: dose 0.001 mg/kg, route intraperitoneal; conditions: in vivo
Mus musculus [18] = test: Neurotoxicity in mouse assessed as effect on spontaneous motility at 0.001 mg/kg, ip by hole-board test; type: toxicity, organism-based; set-up: dose 0.001 mg/kg, route intraperitoneal; conditions: in vivo
Mus musculus [19] = test: Neurotoxicity in mouse assessed as effect on gross behaviour at 0.001 mg/kg, ip by rotarod test; type: toxicity, organism-based; set-up: dose 0.001 mg/kg, route intraperitoneal; conditions: in vivo
Mus musculus [20] = test: Neurotoxicity in mouse assessed as effect on inspection activity at 0.001 mg/kg, ip by hole-board test; type: toxicity, organism-based; set-up: dose 0.001 mg/kg, route intraperitoneal; conditions: in vivo
Mus musculus [21] = test: Nootropic activity against scopolamine-induced amnesia in mouse assessed as increase in latency time to enter dark room at 0.01 mg/kg, ip administered 20 mins prior to test by passive avoidance test (reference value: 91.7 sec); type: functional; conditions: route intraperitoneal
Mus musculus [22] = test: Neurotoxicity in mouse assessed as effect on motor coordination at 0.01 mg/kg, ip by rotarod test; type: toxicity, organism-based; set-up: dose 0.01 mg/kg, route intraperitoneal; conditions: in vivo
Mus musculus [23] = test: Neurotoxicity in mouse assessed as effect on spontaneous motility at 0.01 mg/kg, ip by hole-board test; type: toxicity, organism-based; set-up: dose 0.01 mg/kg, route intraperitoneal; conditions: in vivo
Mus musculus [24] = test: Neurotoxicity in mouse assessed as effect on gross behavior at 0.01 mg/kg, ip by rota-rod test; type: toxicity, organism-based; set-up: dose 0.01 mg/kg, route intraperitoneal; conditions: in vivo
Mus musculus [25] = test: Neurotoxicity in mouse assessed as effect on inspection activity at 0.01 mg/kg, ip by hole-board test; type: toxicity, organism-based; set-up: dose 0.01 mg/kg, route intraperitoneal; conditions: in vivo
Mus musculus [26] = test: Nootropic activity against scopolamine-induced amnesia in mouse assessed as increase in latency time to enter dark room at 0.1 mg/kg, ip administered 20 mins prior to test by passive avoidance test (reference value: 91.7 sec); type: functional; conditions: route intraperitoneal
Mus musculus [27] = test: Neurotoxicity in mouse assessed as effect on motor coordination at 0.1 mg/kg, ip by rotarod test; type: toxicity, organism-based; set-up: dose 0.1 mg/kg, route intraperitoneal; conditions: in vivo
Mus musculus [28] = test: Neurotoxicity in mouse assessed as effect on spontaneous motility at 0.1 mg/kg, ip by hole-board test; type: toxicity, organism-based; set-up: dose 0.1 mg/kg, route intraperitoneal; conditions: in vivo
Mus musculus [29] = test: Neurotoxicity in mouse assessed as effect on gross behavior at 0.1 mg/kg, ip by rota-rod test; type: toxicity, organism-based; set-up: dose 0.1 mg/kg, route intraperitoneal; conditions: in vivo
Mus musculus [30] = test: Neurotoxicity in mouse assessed as effect on inspection activity at 0.1 mg/kg, ip by hole-board test; type: toxicity, organism-based; set-up: dose 0.1 mg/kg, route intraperitoneal; conditions: in vivo

CC(=O)NC1CCCN(S(=O)(=O)c2ccc(F)cc2)CC1 (stereo not drawn)
Activity (Mus musculus [1]): inactive
Time (Mus musculus [2]): 62.7 s

CC(=O)N1CCCN(C(=O)c2ccccc2)CCC1
Activity (Mus musculus [1]): inactive

CCC(=O)N1CCCN(S(=O)(=O)c2ccc(F)cc2)CCC1
Activity (Mus musculus [1]): inactive

CCC(=O)NC1CCCN(S(=O)(=O)c2ccc(F)cc2)CCC1
Time (Mus musculus [3]): 72.2 s
Activity (Mus musculus [4]): Non-toxic
Activity (Mus musculus [5]): Non-toxic
Activity (Mus musculus [6]): Non-toxic
Activity (Mus musculus [7]): Non-toxic

CCC(=O)NC1CCCN(S(=O)(=O)c2ccc(F)cc2)CC1 (stereo not drawn)
Time (Mus musculus [3]): 46.8 s
Activity (Mus musculus [4]): Non-toxic
Activity (Mus musculus [5]): Non-toxic
Activity (Mus musculus [6]): Non-toxic
Activity (Mus musculus [7]): Non-toxic

CCC(=O)NC1CCN(C(=O)c2ccccc2)C1 (stereo not drawn)
Time (Mus musculus [2]): 45.4 s
Activity (Mus musculus [8]): Non-toxic
Activity (Mus musculus [9]): Non-toxic
Activity (Mus musculus [10]): Non-toxic
Activity (Mus musculus [11]): Non-toxic

NC(=O)CN1CCCC1=O [PIRACETAM]
Activity (Mus musculus [12]): Non-toxic
Activity (Mus musculus [13]): Non-toxic
Activity (Mus musculus [14]): Non-toxic
Activity (Mus musculus [15]): Non-toxic

CCC(=O)NC1CCCN(C(=O)c2ccccc2)CC1 (stereo not drawn)
Time (Mus musculus [2]): 62.7 s
Activity (Mus musculus [8]): Non-toxic
Activity (Mus musculus [9]): Non-toxic
Activity (Mus musculus [10]): Non-toxic
Activity (Mus musculus [11]): Non-toxic

CCC(=O)N1CCN(C(=O)c2ccccc2)CC1 [SUNIFIRAM]
Time (Mus musculus [16]): 71 s
Activity (Mus musculus [17]): Non-toxic
Activity (Mus musculus [18]): Non-toxic
Activity (Mus musculus [19]): Non-toxic
Activity (Mus musculus [20]): Non-toxic

CC(=O)NC1CCN(C(=O)c2ccccc2)C1 (stereo not drawn)
Time (Mus musculus [3]): 70.3 s
Activity (Mus musculus [4]): Non-toxic
Activity (Mus musculus [5]): Non-toxic
Activity (Mus musculus [6]): Non-toxic
Activity (Mus musculus [7]): Non-toxic

CC(=O)N1CCCN(S(=O)(=O)c2ccc(F)cc2)CCC1
Activity (Mus musculus [1]): inactive

CCC(=O)NC1CN(C(=O)c2ccccc2)C1
Activity (Mus musculus [1]): inactive

CC(=O)NC1CCN(S(=O)(=O)c2ccc(F)cc2)C1 (stereo not drawn)
Time (Mus musculus [2]): 51 s
Activity (Mus musculus [8]): Non-toxic
Activity (Mus musculus [9]): Non-toxic
Activity (Mus musculus [10]): Non-toxic
Activity (Mus musculus [11]): Non-toxic

CC(=O)NC1CCCN(S(=O)(=O)c2ccc(F)cc2)CCC1
Time (Mus musculus [2]): 44.8 s
Activity (Mus musculus [8]): Non-toxic
Activity (Mus musculus [9]): Non-toxic
Activity (Mus musculus [10]): Non-toxic
Activity (Mus musculus [11]): Non-toxic

CCC(=O)N[C@H]1CCN(S(=O)(=O)c2ccc(F)cc2)C1
Time (Mus musculus [2]): 56.6 s
Activity (Mus musculus [8]): Non-toxic
Activity (Mus musculus [9]): Non-toxic
Activity (Mus musculus [10]): Non-toxic
Activity (Mus musculus [11]): Non-toxic

CC(=O)NC1CCN(S(=O)(=O)c2ccc(F)cc2)CC1 [SAPUNIFIRAM]
Time (Mus musculus [21]): 76.1 s
Activity (Mus musculus [22]): Non-toxic
Activity (Mus musculus [23]): Non-toxic
Activity (Mus musculus [24]): Non-toxic
Activity (Mus musculus [25]): Non-toxic

CCC(=O)N1CCCC(NS(=O)(=O)c2ccc(F)cc2)CC1 (stereo not drawn)
Time (Mus musculus [3]): 81.4 s

CCC(=O)N1CCCN(C(=O)c2ccccc2)CCC1
Activity (Mus musculus [1]): inactive

CCC(=O)N1CCC(NS(=O)(=O)c2ccc(F)cc2)C1 (stereo not drawn)
Activity (Mus musculus [1]): inactive

CC(=O)NC1CCCN(C(=O)c2ccccc2)CC1 (stereo not drawn)
Activity (Mus musculus [1]): inactive

CCC(=O)NC1CCCN(C(=O)c2ccccc2)CCC1
Activity (Mus musculus [1]): inactive

CCC(=O)NC1CCN(S(=O)(=O)c2ccc(F)cc2)C1 (stereo not drawn)
Time (Mus musculus [26]): 48.8 s
Activity (Mus musculus [27]): Non-toxic
Activity (Mus musculus [28]): Non-toxic
Activity (Mus musculus [29]): Non-toxic
Activity (Mus musculus [30]): Non-toxic

CCC(=O)NC1CN(S(=O)(=O)c2ccc(F)cc2)C1
Time (Mus musculus [3]): 44.1 s
Activity (Mus musculus [4]): Non-toxic
Activity (Mus musculus [5]): Non-toxic
Activity (Mus musculus [6]): Non-toxic
Activity (Mus musculus [7]): Non-toxic

CCC(=O)N1CCCC(NC(=O)c2ccccc2)CC1 (stereo not drawn)
Time (Mus musculus [2]): 69.4 s
Activity (Mus musculus [8]): Non-toxic
Activity (Mus musculus [9]): Non-toxic
Activity (Mus musculus [10]): Non-toxic
Activity (Mus musculus [11]): Non-toxic

CC(=O)NC1CCCN(C(=O)c2ccccc2)CCC1
Activity (Mus musculus [1]): inactive

CC(=O)N1CCCC(NS(=O)(=O)c2ccc(F)cc2)CC1 (stereo not drawn)
Time (Mus musculus [2]): 45.8 s
Activity (Mus musculus [8]): Non-toxic
Activity (Mus musculus [9]): Non-toxic
Activity (Mus musculus [10]): Non-toxic
Activity (Mus musculus [11]): Non-toxic

CC(=O)N1CCC(NC(=O)c2ccccc2)C1 (stereo not drawn)
Time (Mus musculus [2]): 48.1 s
Activity (Mus musculus [8]): Non-toxic
Activity (Mus musculus [9]): Non-toxic
Activity (Mus musculus [10]): Non-toxic
Activity (Mus musculus [11]): Non-toxic

CC(=O)N1CCCC(NC(=O)c2ccccc2)CC1 (stereo not drawn)
Time (Mus musculus [2]): 70.4 s
Activity (Mus musculus [8]): Non-toxic
Activity (Mus musculus [9]): Non-toxic
Activity (Mus musculus [10]): Non-toxic
Activity (Mus musculus [11]): Non-toxic

CCC(=O)N[C@@H]1CCN(S(=O)(=O)c2ccc(F)cc2)C1
Time (Mus musculus [3]): 69.4 s
Activity (Mus musculus [4]): Non-toxic
Activity (Mus musculus [5]): Non-toxic
Activity (Mus musculus [6]): Non-toxic
Activity (Mus musculus [7]): Non-toxic

CCC(=O)N1CCC(NC(=O)c2ccccc2)C1 (stereo not drawn)
Activity (Mus musculus [1]): inactive

CC(=O)N1CCC(NS(=O)(=O)c2ccc(F)cc2)C1 (stereo not drawn)
Activity (Mus musculus [1]): inactive
